pIC50: −log10 of the molar value.
What follows are compounds tested against T1, GPR84 (Homo sapiens, UniProt Q9NQS5) (assay: GPR84 [35S]GTPγS binding assay, HEPES buffer). Settings: 3,3′ di indolylmethane at EC80, membranes from stable cell line over expressing GPR84.
T1 construct: expressed in transfected cells
T1 sequence (Q9NQS5 whole entry): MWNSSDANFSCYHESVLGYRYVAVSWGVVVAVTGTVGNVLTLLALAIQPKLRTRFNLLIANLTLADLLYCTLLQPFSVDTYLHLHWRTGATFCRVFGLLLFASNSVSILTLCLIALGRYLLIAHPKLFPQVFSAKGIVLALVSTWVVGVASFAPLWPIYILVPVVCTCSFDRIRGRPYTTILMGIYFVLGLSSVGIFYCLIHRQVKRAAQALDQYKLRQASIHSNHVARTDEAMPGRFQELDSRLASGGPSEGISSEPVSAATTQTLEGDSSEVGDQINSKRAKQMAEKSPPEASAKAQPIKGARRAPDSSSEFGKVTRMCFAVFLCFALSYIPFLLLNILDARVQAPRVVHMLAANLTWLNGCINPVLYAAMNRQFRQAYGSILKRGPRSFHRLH
Assay type: biochemical
Experimental: 1.1. Cell Based Assay: GTp-γ S Binding Assay.
The following assay can be used for determination of GPR84 activation.
The assay is performed in a 96 well plate where the following reagents are added. […] In a last step, 30 μL of a mixture consisting of membranes-GTPγS-SpA beads is added [mixture consists of 20 μg/well membranes derived from stable cell line over expressing GPR84 (membranes are pre-incubated with 0.1 μM GDP for 15 min at 4° C.), 0.1 nM [^35S]GTPγS (Perkin Elmer, NEG030) and 0.5 mg/well PVT-WGA SpA beads (Perkin Elmer, RPNQ0001)]. All components are diluted in assay buffer containing 20 mM HEPES pH 7.4; 5 mM MgCl2; 250 mM NaCl; 0.05% BSA; 75 ug/mL saponin Reactions are incubated for 90 min at room temperature followed by centrifugation at 2000 rpm during 15 min. Plates are read on a Topcount reader (Perkin Elmer) immediately after centrifugation (readout time, 1 min/well).
COc1ccc2c(c1)CCn1c-2cc(OCC2Cc3ccccc3O2)nc1=O (stereo not drawn) [compound 5, 2-(2,3-dihydro-benzofuran-2-ylmethoxy)-9-methoxy-6,7-dihydro-pyrimido[6,1-a]isoquinolin-4-one] was tested, and the pIC50 was 6.00 to 6.30. With O=c1nc(OCC2CCCO2)cc2n1CCc1cc(OCc3ccccc3)ccc1-2 (stereo not drawn) [compound 7, 9-benzyloxy-2-(tetrahydro-furan-2-ylmethoxy)-6,7-dihydro-pyrimido[6,1-a]isoquinolin-4-one] the pIC50 was 7.00 to 11.00. O=c1nc(OCC2CCCO2)cc2n1CCc1cc(OCc3cccnc3)ccc1-2 (stereo not drawn) [compound 8, 9-(pyridin-3-ylmethoxy)-2-(tetrahydro-furan-2-ylmethoxy)-6,7-dihydro-pyrimido[6,1-a]isoquinolin-4-one] showed a pIC50 of 6.30 to 7.00. For CCCCOc1ccc2c(c1)CCn1c-2cc(OCC2CCCO2)nc1=O (stereo not drawn) [compound 10, 9-butoxy-2-(tetrahydro-furan-2-ylmethoxy)-6,7-dihydro-pyrimido[6,1-a]isoquinolin-4-one], the pIC50 was 6.30 to 7.00. O=c1nc(OCC2CCCO2)cc2n1CCc1cc(OCC3CC3)ccc1-2 (stereo not drawn) [compound 11, 9-cyclopropylmethoxy-2-(tetrahydro-furan-2-ylmethoxy)-6,7-dihydro-pyrimido[6,1-a]isoquinolin-4-one] was tested, and the pIC50 was 6.30 to 7.00. O=c1nc(OCC2CCCO2)cc2n1CCc1cc(OCCc3ccccc3)ccc1-2 (stereo not drawn) [compound 12, 9-phenethyloxy-2-(tetrahydro-furan-2-ylmethoxy)-6,7-dihydro-pyrimido[6,1-a]isoquinolin-4-one] gave a pIC50 of 6.30 to 7.00. For O=c1nc(OCC2CCCO2)cc2n1CCc1cc(OCc3ccncc3)ccc1-2 (stereo not drawn) [compound 13, 9-(pyridin-4-ylmethoxy)-2-(tetrahydro-furan-2-ylmethoxy)-6,7-dihydro-pyrimido[6,1-a]isoquinolin-4-one], the pIC50 was 6.30 to 7.00. For O=c1nc(OCC2CCCO2)cc2n1CCc1cc(OCc3ccccn3)ccc1-2 (stereo not drawn) [compound 14, 9-(pyridin-2-ylmethoxy)-2-(tetrahydro-furan-2-ylmethoxy)-6,7-dihydro-pyrimido[6,1-a]isoquinolin-4-one], the pIC50 was 6.30 to 7.00. N#Cc1ccc(COc2ccc3c(c2)CCn2c-3cc(OCC3CCCO3)nc2=O)cc1 (stereo not drawn) [compound 17, 4-[4-oxo-2-(tetrahydro-furan-2-ylmethoxy)-6,7-dihydro-4H-pyrimido[6,1-a]isoquinolin-9-yloxymethyl]-benzonitrile] gave a pIC50 of 7.00 to 11.00. For N#Cc1cccc(COc2ccc3c(c2)CCn2c-3cc(OCC3CCCO3)nc2=O)c1 (stereo not drawn) [compound 19, 3-[4-oxo-2-(tetrahydro-furan-2-ylmethoxy)-6,7-dihydro-4H-pyrimido[6,1-a]isoquinolin-9-yloxymethyl]-benzonitrile], the pIC50 was 6.30 to 7.00. N#Cc1ccccc1COc1ccc2c(c1)CCn1c-2cc(OCC2CCCO2)nc1=O (stereo not drawn) [compound 20, 2-[4-oxo-2-(tetrahydro-furan-2-ylmethoxy)-6,7-dihydro-4H-pyrimido[6,1-a]isoquinolin-9-yloxymethyl]-benzonitrile] showed a pIC50 of 7.00 to 11.00. In the case of O=c1nc(OCC2CCCO2)cc2n1CCc1cc(OCc3ccc(Cl)cc3)ccc1-2 (stereo not drawn) [compound 21, 9-(4-chloro-benzyloxy)-2-(tetrahydro-furan-2-ylmethoxy)-6,7-dihydro-pyrimido[6,1-a]isoquinolin-4-one], the pIC50 was 7.00 to 11.00. Compound O=c1nc(OCC2CCCO2)cc2n1CCc1cc(OCc3cccc(Cl)c3)ccc1-2 (stereo not drawn) [compound 22, 9-(3-chloro-benzyloxy)-2-(tetrahydro-furan-2-ylmethoxy)-6,7-dihydro-pyrimido[6,1-a]isoquinolin-4-one] has a pIC50 of 7.00 to 11.00. O=c1nc(OCC2CCCO2)cc2n1CCc1cc(OCc3ccccc3Cl)ccc1-2 (stereo not drawn) [compound 23, 9-(2-chloro-benzyloxy)-2-(tetrahydro-furan-2-ylmethoxy)-6,7-dihydro-pyrimido[6,1-a]isoquinolin-4-one] was tested, and the pIC50 was 6.30 to 7.00. O=c1nc(OCC2CCCO2)cc2n1CCc1cc(OCc3ccc(F)cc3)ccc1-2 (stereo not drawn) [compound 24, 9-(4-fluoro-benzyloxy)-2-(tetrahydro-furan-2-ylmethoxy)-6,7-dihydro-pyrimido[6,1-a]isoquinolin-4-one] was tested, and the pIC50 was 6.30 to 7.00. In the case of O=c1nc(OCC2CCCO2)cc2n1CCc1cc(OCc3ccccc3[N+](=O)[O-])ccc1-2 (stereo not drawn) [compound 25, 9-(2-nitro-benzyloxy)-2-(tetrahydro-furan-2-ylmethoxy)-6,7-dihydro-pyrimido[6,1-a]isoquinolin-4-one], the pIC50 was 7.00 to 11.00. With COC(=O)c1ccc(COc2ccc3c(c2)CCn2c-3cc(OCC3CCCO3)nc2=O)cc1 (stereo not drawn) [compound 26, 4-[4-oxo-2-(tetrahydro-furan-2-ylmethoxy)-6,7-dihydro-4H-pyrimido[6,1-a]isoquinolin-9-yloxymethyl]-benzoic acid methyl ester] the pIC50 was 6.30 to 7.00. With COC(=O)c1cccc(COc2ccc3c(c2)CCn2c-3cc(OCC3CCCO3)nc2=O)c1 (stereo not drawn) [compound 27, 3-[4-oxo-2-(tetrahydro-furan-2-ylmethoxy)-6,7-dihydro-4H-pyrimido[6,1-a]isoquinolin-9-yloxymethyl]-benzoic acid methyl ester] the pIC50 was 7.00 to 11.00. O=c1nc(OCC2COc3ccccc3O2)cc2n1CCc1cc(OCc3ccccn3)ccc1-2 (stereo not drawn) [compound 28, 2-(2,3-dihydro-benzo[1,4]dioxin-2-ylmethoxy)-9-(pyridin-2-ylmethoxy)-6,7-dihydro-pyrimido[6,1-a]isoquinolin-4-one] was tested, and the pIC50 was 7.00 to 11.00. For CC(C)(C)OC(=O)COc1ccc2c(c1)CCn1c-2cc(OCC2COc3ccccc3O2)nc1=O (stereo not drawn) [compound 29, [2-(2,3-dihydro-benzo[1,4]dioxin-2-ylmethoxy)-4-oxo-6,7-dihydro-4H-pyrimido[6,1-a]isoquinolin-9-yloxy]-acetic acid tert-butyl ester], the pIC50 was 7.00 to 11.00. Compound O=c1nc(OCC2COc3ccccc3O2)cc2n1CCc1cc(OCC3COc4ccccc4O3)ccc1-2 (stereo not drawn) [compound 30, 2,9-bis-(2,3-dihydro-benzo[1,4]dioxin-2-ylmethoxy)-6,7-dihydro-pyrimido[6,1-a]isoquinolin-4-one] has a pIC50 of 7.00 to 11.00. Work on O=c1nc(OCC2CCCO2)cc2n1CCc1cc(OCc3ccc([N+](=O)[O-])cc3)ccc1-2 (stereo not drawn) [compound 33, 9-(4-nitro-benzyloxy)-2-(tetrahydro-furan-2-ylmethoxy)-6,7-dihydro-pyrimido[6,1-a]isoquinolin-4-one] yielded a pIC50 of 7.00 to 11.00. Cc1ccc(COc2ccc3c(c2)CCn2c-3cc(OCC3CCCO3)nc2=O)cc1 (stereo not drawn) [compound 35, 9-(4-methyl-benzyloxy)-2-(tetrahydro-furan-2-ylmethoxy)-6,7-dihydro-pyrimido[6,1-a]isoquinolin-4-one] showed a pIC50 of 7.00 to 11.00. With O=c1nc(OCC2CCCO2)cc2n1CCc1cc(OCc3ccc4ccccc4c3)ccc1-2 (stereo not drawn) [compound 37, 9-(naphthalen-2-ylmethoxy)-2-(tetrahydro-furan-2-ylmethoxy)-6,7-dihydro-pyrimido[6,1-a]isoquinolin-4-one] the pIC50 was 7.00 to 11.00. Compound Cc1ccccc1COc1ccc2c(c1)CCn1c-2cc(OCC2CCCO2)nc1=O (stereo not drawn) [compound 39, 9-(2-methyl-benzyloxy)-2-(tetrahydro-furan-2-ylmethoxy)-6,7-dihydro-pyrimido[6,1-a]isoquinolin-4-one] has a pIC50 of 7.00 to 11.00. With COc1ccccc1OCCOc1ccc2c(c1)CCn1c-2cc(OCC2CCCO2)nc1=O (stereo not drawn) [compound 40, 9-[2-(2-methoxy-phenoxy)-ethoxy]-2-(tetrahydro-furan-2-ylmethoxy)-6,7-dihydro-pyrimido[6,1-a]isoquinolin-4-one] the pIC50 was 7.00 to 11.00. COc1cccc(OCCOc2ccc3c(c2)CCn2c-3cc(OCC3CCCO3)nc2=O)c1 (stereo not drawn) [compound 41, 9-[2-(3-methoxy-phenoxy)-ethoxy]-2-(tetrahydro-furan-2-ylmethoxy)-6,7-dihydro-pyrimido[6,1-a]isoquinolin-4-one] gave a pIC50 of 7.00 to 11.00. COc1ccc(OCCOc2ccc3c(c2)CCn2c-3cc(OCC3CCCO3)nc2=O)cc1 (stereo not drawn) [compound 42, 9-[2-(4-methoxy-phenoxy)-ethoxy]-2-(tetrahydro-furan-2-ylmethoxy)-6,7-dihydro-pyrimido[6,1-a]isoquinolin-4-one] was tested, and the pIC50 was 7.00 to 11.00. For O=c1nc(OCC2CCCO2)cc2n1CCc1cc(OCCOc3ccccc3Cl)ccc1-2 (stereo not drawn) [compound 43, 9-[2-(2-chloro-phenoxy)-ethoxy]-2-(tetrahydro-furan-2-ylmethoxy)-6,7-dihydro-pyrimido[6,1-a]isoquinolin-4-one], the pIC50 was 7.00 to 11.00. O=c1nc(OCC2CCCO2)cc2n1CCc1cc(OCCOc3cccc(Cl)c3)ccc1-2 (stereo not drawn) [compound 44, 9-[2-(3-chloro-phenoxy)-ethoxy]-2-(tetrahydro-furan-2-ylmethoxy)-6,7-dihydro-pyrimido[6,1-a]isoquinolin-4-one] gave a pIC50 of 7.00 to 11.00. Work on O=c1nc(OCC2CCCO2)cc2n1CCc1cc(OCCOc3ccc(Cl)cc3)ccc1-2 (stereo not drawn) [compound 45, 9-[2-(4-chloro-phenoxy)-ethoxy]-2-(tetrahydro-furan-2-ylmethoxy)-6,7-dihydro-pyrimido[6,1-a]isoquinolin-4-one] yielded a pIC50 of 7.00 to 11.00. Compound CC(C)(Oc1ccc2c(c1)CCn1c-2cc(OCC2COc3ccccc3O2)nc1=O)C(N)=O (stereo not drawn) [compound 49, 2-[2-(2,3-dihydro-benzo[1,4]dioxin-2-ylmethoxy)-4-oxo-6,7-dihydro-4H-pyrimido[6,1-a]isoquinolin-9-yloxy]-2-methyl-propionamide] has a pIC50 of 7.00 to 11.00. With CC(C)(Oc1ccc2c(c1)CCn1c-2cc(OCC2COc3ccccc3O2)nc1=O)C(=O)N1CCOCC1 (stereo not drawn) [compound 50, 2-(2,3-dihydro-benzo[1,4]dioxin-2-ylmethoxy)-9-(1,1-dimethyl-2-morpholin-4-yl-2-oxo-ethoxy)-6,7-dihydro-pyrimido[6,1-a]isoquinolin-4-one] the pIC50 was 6.00 to 6.30.
